Experimental data as given in patent publication US20060217375A1, “New compounds” (priority 2004, published 2006).

Assays:
human OX-1R = molecular target: T1, human OX-1R (Homo sapiens, UniProt O43613); assay: Functional Ki determination: inhibition of orexin-A induced Ca2+ release (FLIPR, Fluo-4AM) in HEK293EBNA cells stably expressing OX-1R; type: cell-based
T1 construct: expressed in transfected cells; host or cells: HEK293EBNA
T1 sequence (O43613 1-425): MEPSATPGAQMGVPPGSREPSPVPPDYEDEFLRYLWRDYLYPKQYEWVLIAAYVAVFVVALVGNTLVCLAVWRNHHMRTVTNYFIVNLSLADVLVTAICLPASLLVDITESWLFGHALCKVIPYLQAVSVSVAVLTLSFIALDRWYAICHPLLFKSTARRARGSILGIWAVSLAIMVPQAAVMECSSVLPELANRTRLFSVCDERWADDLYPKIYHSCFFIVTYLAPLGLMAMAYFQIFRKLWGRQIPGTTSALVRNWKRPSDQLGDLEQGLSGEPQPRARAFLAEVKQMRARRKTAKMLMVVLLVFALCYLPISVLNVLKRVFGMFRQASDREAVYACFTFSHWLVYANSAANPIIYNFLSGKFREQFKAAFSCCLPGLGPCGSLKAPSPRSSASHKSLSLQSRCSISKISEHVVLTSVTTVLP
Method: Human embryonic kidney (HEK293EBNA) cells stably expressing OX-1R seeded in 96- or 384-well plates are pre-loaded with Ca^2+ sensing probe Fluo-4AM fluorescent dye for 60 min before addition of test compounds (10 μM for primary screen). Fluorescent intensity, which is a measurement of Ca^2+ concentration inside the cells, is recorded using a Fluorometric imaging plate reader (FLIPR 98R 96-well format or FLIPR 3, 384-well format, Molecular Devices) and inhibition of the peak response evoked by orexin-A (EC70 concentration) is calculated. Potency (Ki) determinations are performed utilizing the same functional assay as described for primary screening, applying the compounds in the concentration range of 340 pM to 20 μM and recording the concentration resulting in a 50% inhibition of orexin-A induced Ca^2+ release (IC50) and from there calculating the inhibition constant (Ki).
The calculation of the functional Ki values for the inhibitors was performed by use of Activity Base. The Ki value is calculated from IC50 using the Cheng Prushoff equation (with reversible inhibition that follows the Michaelis-Menten equation): Ki=IC50/(1+[S]/Km) (Cheng, Y. C. & Prushoff, W. H. (1973) Biochem. Pharmacol. 22:3099-3108).

ob/ob mice = conditions: 30 mg/kg i.p. once daily for 7 days plus twice daily for another 7 days; cited from earlier work
rats = conditions: i.p.; cited from earlier work

Compound `COc1cc(-c2ccc3c(c2)COC2(CCNCC2)O3)cc(OC)c1OC` [Example 2, 6-[3,4,5-trimethoxyphenyl]-4H-spiro[1,3-benzodioxine-2,4′-piperidine]] has a Ki (human OX-1R) of 0.349 µM.

`COc1cc(-c2ccc3c(c2)OC2(CCNCC2)O3)cc(OC)c1OC` [Example 4, 5-(3,4,5-trimethoxyphenyl)spiro[1,3-benzodioxole-2,4′-piperidine]] showed a Ki (human OX-1R) of 0.823 µM.

Work on `O=C(COc1cccc(-c2ccc3c(c2)COC2(CCNCC2)O3)c1)Nc1ccccc1` [Example 8, N-phenyl-2-[3-(4H-spiro[1,3-benzodioxine-2,4′-piperidin]-6-yl)phenoxy]acetamide] yielded a Ki (human OX-1R) of 0.253 µM.

In the case of `Cc1nc2ccc(NC(=O)Nc3ccnc4cccnc34)cc2o1` [SB-334867], the body weight gain (ob/ob mice) is listed as “suppressed”, the cumulative food intake (ob/ob mice) is listed as “suppressed” and the lean body mass (ob/ob mice) is listed as “unchanged”. The total fat mass (ob/ob mice) was “reduced” and the behavioral satiety sequence (rats) was “advances the behavioral satiety sequence increasing the time the animals spend resting”.
